The text below walks through data of US4587254A, “1,3,4-thiadiazole derivatives, process for the production thereof and use thereof as antiulcer agent” (Wakamoto Pharmaceutical Co., Ltd., priority 1983, dated 1986).

Values joined by “and” are separate entries in the source; they are usually repeats but may differ in a detail not shown here. Equal entries are not always repeated. Structures can show the parent of a compound that is named as a salt.

Series [1] in a line: Acute toxicity in mice (LD50). The following applies: mouse, in vivo. The source says:
(§1) For example, the acute toxicities of a compound of the formula (I) wherein R2 represents --NH2 in mice and rats are as shown in Table 1. The acute toxicities of compounds of the formula (I) wherein R2 represents --NHCH3, --SH or --SCH3 are nearly equal to that shown in Table 1.

Series [2] in a line: Acute toxicity in rats (LD50). Particulars: rat, in vivo.
Description: as §1

The test system of series [3] is secretion of acid in the stomach. Put plainly: Inhibition of the secretion of acid in the stomach (pylorus-ligated rats). In kind it is in vivo, rats (Donryu male). The following applies: duodenum, 6 h; for Acidity / Gastric juice secreted / Inhibition rate (acidity) / Inhibition rate (amount of acid discharged) / Inhibition rate (gastric juice secreted) / Inhibition rate (pepsin activity) / Pepsin activity / Amount of acid discharged: five rats. The procedure:
The pylorus was ligated. Immediately thereafter, a test sample was placed in the duodenum and the abdomen was closed. Six hour after the administration of the test sample, the stomach was taken out under […] anesthesia and the gastric juice was taken out. The gastric juice was centrifuged. The quantity, acidity and pepsin activity of the supernatant liquid were determined. […] The amount of the acid discharged per hour was calculated by multiplying the acidity by the quantity of the juice. Pepsin activity was determined by Anson's method [J. gen. […] The results of the tests of TAS are the averages of the group consisting of ten rats.

The nature of series [4]: Antiulcer effects (pylorus-ligated rats). The class given is in vivo, rats (Donryu). Particulars: for Inhibition rate (ulcer): duodenum, 8 h. The procedure: Donryu rats weighing 200 to 230 g were used. Each group consisted of 6 rats. After fasting for 72 h, the rats were subjected to an abdominal operation under etheral anesthesia. The pylorus was ligated. Immediately thereafter, a given dose of a test sample was placed in the duodenum. Thereafter, neither food nor water was given. After 8 h, the stomach was taken out under etheral anesthesia and immersed in 1% formalin solution for 10 min. The stomach was cut along the greater curvature. The area of ulcer formed in the forestomach was determined by an anatomico-microscopicobservation (magnification: ×10). The rate of control of the ulcer (%) was calculated as compared with a control.

Take `Nc1nnc(NCCCOc2cccc(CN3CCCCC3)c2)s1` [2-N-{3-[3-(1-piperidinomethyl)phenoxy]propyl}amino-5-amino-1,3,4-thiadiazole]: the LD50 in series [1] (intravenous injection) was 53.2 mg/kg; in series [1] (po, peroral) it was 1220 mg/kg; in series [2] (intravenous injection), 91.6 mg/kg; in series [2] (po, peroral), 1410 mg/kg.

Regarding `CNc1nnc(NCCCOc2cccc(CN3CCCCC3)c2)s1` [H2 --33, 2-N-{3-[3-(1-piperidinomethyl)phenoxy]-propyl}amino-5-methylamino-1,3,4-thiadiazole], in series [3] (6.7 mg/kg), the Acidity worked out at 70.0 meq H^+ /l, the Gastric juice secreted is 4.8 mL, the “Inhibition rate (acidity)” value stood at 14.0% and the “Inhibition rate (amount of acid discharged)” value is 35.0%. For the same compound, in series [3] (6.7 mg/kg), the “Inhibition rate (gastric juice secreted)” value is listed as 17.0%, the “Inhibition rate (pepsin activity)” value is reported as -3.2% and the Pepsin activity stood at 6.4 mg/mL. Also, in series [3] (20.0 mg/kg), the Acidity was determined as 52.0 meq H^+ /l, the Gastric juice secreted turned out to be 2.5 mL, the “Inhibition rate (acidity)” value is reported as 36.0% and the “Inhibition rate (amount of acid discharged)” value is on record as 70.0%. In series [3] (20.0 mg/kg), the “Inhibition rate (gastric juice secreted)” value was determined as 57.0%, the “Inhibition rate (pepsin activity)” value was determined as 0% and the Pepsin activity stood at 6.2 mg/mL. Besides, in series [3] (60.0 mg/kg), the Acidity came out at 24.0 meq H^+ /l, the Gastric juice secreted is 2.9 mL, the “Inhibition rate (acidity)” value was 70.0% and the “Inhibition rate (amount of acid discharged)” value was 88.0%. In series [3] (60.0 mg/kg), the “Inhibition rate (gastric juice secreted)” value was determined as 50.0%, the “Inhibition rate (pepsin activity)” value turned out to be 21.0% and the Pepsin activity is 4.9 mg/mL. In series [3] (Table 3, 6.7 mg/kg), the “Amount of acid discharged” value is 54.0 μEq/H. For the same compound, the “Amount of acid discharged” value in series [3] (Table 3, 20.0 mg/kg) is recorded as 25.0 μEq/H. The “Amount of acid discharged” value in series [3] (Table 3, 60.0 mg/kg) amounted to 10.0 μEq/H.

With `Sc1nnc(NCCCOc2cccc(CN3CCCCC3)c2)s1` [H2 --37, 2-N-{3-[3-(1-piperidinomethyl)phenoxy]propyl}amino-5-mercapto-1,3,4-thiadiazole], in series [3] (6.7 mg/kg), the Acidity came to 85.0 meq H^+ /l, the Gastric juice secreted amounted to 4.6 mL, the “Inhibition rate (acidity)” value was found to be 4.5% and the “Inhibition rate (amount of acid discharged)” value worked out at 22.0%. In series [3] (6.7 mg/kg), the “Inhibition rate (gastric juice secreted)” value is on record as 27.0%, the “Inhibition rate (pepsin activity)” value is -7.3% and the Pepsin activity was found to be 5.9 mg/mL. Besides, in series [3] (20.0 mg/kg), the Acidity is on record as 81.0 meq H^+ /l, the Gastric juice secreted came out at 5.2 mL, the “Inhibition rate (acidity)” value is listed as 9.0% and the “Inhibition rate (amount of acid discharged)” value is given as 21.0%. In series [3] (20.0 mg/kg), the “Inhibition rate (gastric juice secreted)” value is 18.0%, the “Inhibition rate (pepsin activity)” value is reported as -7.3% and the Pepsin activity is 5.9 mg/mL. In addition, in series [3] (60.0 mg/kg), the Acidity came out at 67.0 meq H^+ /l, the Gastric juice secreted worked out at 3.6 mL, the “Inhibition rate (acidity)” value came to 24.0% and the “Inhibition rate (amount of acid discharged)” value is listed as 57.0%. Further, in series [3] (60.0 mg/kg), the “Inhibition rate (gastric juice secreted)” value turned out to be 43.0%, the “Inhibition rate (pepsin activity)” value worked out at 1.8% and the Pepsin activity came to 5.4 mg/mL. The “Amount of acid discharged” value in series [3] (Table 4, 6.7 mg/kg) came out at 67.0 μEq/h. Also, the “Amount of acid discharged” value in series [3] (Table 4, 20.0 mg/kg) came out at 68.0 μEq/h. Moreover, the “Amount of acid discharged” value in series [3] (Table 4, 60.0 mg/kg) is recorded as 37.0 μEq/h.

Turning to `Nc1nnc(NCCCOc2cccc(CN3CCCCC3)c2)s1` [TAS, 2-N-{3-[3-(1-piperidinomethyl)phenoxy]propyl}-amino-5-amino-1,3,4-thiadiazole hydrochloride], the “Rate of control of the amount of acid discharged” value turned out to be 85.7% in series [3] (Table 5, 6.7 mg/kg, ten rats); 91.4% in series [3] (Table 5, 20.0 mg/kg, ten rats); 100% in series [3] (Table 5, 60.0 mg/kg, ten rats); 40.2% in series [3] (Table 6, 0.7 mg/kg); 81.5% in series [3] (Table 6, 6.7 mg/kg); 91.5% in series [3] (Table 6, 20.0 mg/kg). In addition, the “Rate of control of the amount of pepsin discharged” value (“Rate … of pepsin discharged” below) in series [3] (Table 5, 6.7 mg/kg, ten rats) is listed as 13.6%; in series [3] (Table 5, 20.0 mg/kg, ten rats) it was 25.8%; in series [3] (Table 5, 60.0 mg/kg, ten rats), 86.4%; in series [3] (Table 6, 0.7 mg/kg), -1.3%; in series [3] (Table 6, 6.7 mg/kg), 15.2%; in series [3] (Table 6, 20.0 mg/kg) it was 30.4%. The “Rate of inhibition of acidity” value was 67.4% in series [3] (Table 5, 6.7 mg/kg, ten rats); 74.0% in series [3] (Table 5, 20.0 mg/kg, ten rats); 100% in series [3] (Table 5, 60.0 mg/kg, ten rats); 22.4% in series [3] (Table 6, 0.7 mg/kg); 65.7% in series [3] (Table 6, 6.7 mg/kg); 75.0% in series [3] (Table 6, 20.0 mg/kg). The “Rate of inhibition of the secretion of gastric juice” value in series [3] (Table 5, 6.7 mg/kg, ten rats) is on record as 57.7%; in series [3] (Table 5, 20.0 mg/kg, ten rats) it was 65.4%; in series [3] (Table 5, 60.0 mg/kg, ten rats), 82.7%; in series [3] (Table 6, 0.7 mg/kg), 23.51%; in series [3] (Table 6, 6.7 mg/kg), 52.9%; in series [3] (Table 6, 20.0 mg/kg) it was 66.7%. The “Inhibition rate (ulcer)” value in series [4] (6.3 mg/kg) came to 60.0%; in series [4] (12.5 mg/kg), 90.0%; in series [4] (25.0 mg/kg) it was 95.0%; in series [4] (50.0 mg/kg), 100%. Moreover, the “antiulcer effects compared with 200 mg/kg of cimetidine or ranitidine” value in series [4] (12.5 to 50 mg/kg) is given as “far superior”.

Turning to `CN/C(=N/CCSCc1nc[nH]c1C)NC#N` [cimetidine, reference compound], the Acidity is 85.0 meq H^+ /l and 76.0 meq H^+ /l in series [3] (6.7 mg/kg); 77.0 meq H^+ /l and 79.0 meq H^+ /l in series [3] (20.0 mg/kg); 61.0 meq H^+ /l and 62.0 meq H^+ /l in series [3] (60.0 mg/kg). Besides, the Gastric juice secreted was 5.4 mL and 5.0 mL in series [3] (6.7 mg/kg); 4.8 mL and 4.5 mL in series [3] (20.0 mg/kg); 3.7 mL and 4.5 mL in series [3] (60.0 mg/kg). Further, the Pepsin activity in series [3] (6.7 mg/kg) was 7.0 mg/mL and 5.5 mg/mL; in series [3] (20.0 mg/kg), 6.2 mg/mL and 5.1 mg/mL; in series [3] (60.0 mg/kg), 6.3 mg/mL. For the same compound, the “Inhibition rate (acidity)” value is 5.4% and 11.0% in series [3] (20.0 mg/kg); 25.0% and 31.0% in series [3] (60.0 mg/kg). The “Inhibition rate (amount of acid discharged)” value is 31.0% and 29.0% in series [3] (20.0 mg/kg); 55.0% and 45.0% in series [3] (60.0 mg/kg). Besides, the “Inhibition rate (gastric juice secreted)” value in series [3] (20.0 mg/kg) was 17.0% and 29.0%; in series [3] (60.0 mg/kg), 36.0% and 29.0%. Further, the “Inhibition rate (pepsin activity)” value in series [3] (20.0 mg/kg) is 0% and 7.3%. Besides, the “Amount of acid discharged” value in series [3] (Table 3, 6.7 mg/kg) was determined as 79.0 μEq/H; in series [3] (Table 3, 20.0 mg/kg), 57.0 μEq/H; in series [3] (Table 3, 60.0 mg/kg), 38.0 μEq/H; in series [3] (Table 4, 6.7 mg/kg), 67.0 μEq/h; in series [3] (Table 4, 20.0 mg/kg), 61.0 μEq/h; in series [3] (Table 4, 60.0 mg/kg), 47.0 μEq/h. In addition, the “Rate of control of the amount of acid discharged” value in series [3] (Table 5, 6.7 mg/kg, ten rats) is reported as 2.5%; in series [3] (Table 5, 20.0 mg/kg, ten rats) it was 25.6%; in series [3] (Table 5, 60.0 mg/kg, ten rats), 51.1%. Further, the “Rate … of pepsin discharged” value in series [3] (Table 5, 6.7 mg/kg, ten rats) is reported as -6.1%; in series [3] (Table 5, 20.0 mg/kg, ten rats), 6.1%; in series [3] (Table 5, 60.0 mg/kg, ten rats), 4.5%. The “Rate of inhibition of acidity” value in series [3] (Table 5, 6.7 mg/kg, ten rats) turned out to be 2.9%; in series [3] (Table 5, 20.0 mg/kg, ten rats), 12.4%; in series [3] (Table 5, 60.0 mg/kg, ten rats), 30.9%. Besides, the “Rate of inhibition of the secretion of gastric juice” value in series [3] (Table 5, 6.7 mg/kg, ten rats) was 3.8%; in series [3] (Table 5, 20.0 mg/kg, ten rats), 7.7%; in series [3] (Table 5, 60.0 mg/kg, ten rats), 28.8%. Moreover, the “Inhibition rate (ulcer)” value in series [4] (100 mg/kg) was 10%; in series [4] (200 mg/kg), 60%.

Consider `CNC(=C[N+](=O)[O-])NCCSCc1ccc(CN(C)C)o1` [ranitidine, reference compound], for which the “Rate of control of the amount of acid discharged” value came to 19.3% in series [3] (Table 5, 6.7 mg/kg, ten rats); 54.2% in series [3] (Table 5, 20.0 mg/kg, ten rats); 67.4% in series [3] (Table 5, 60.0 mg/kg, ten rats). For the same compound, the “Rate … of pepsin discharged” value is 1.5% in series [3] (Table 5, 6.7 mg/kg, ten rats); -4.5% in series [3] (Table 5, 20.0 mg/kg, ten rats); -3.0% in series [3] (Table 5, 60.0 mg/kg, ten rats). For the same compound, the “Rate of inhibition of acidity” value in series [3] (Table 5, 6.7 mg/kg, ten rats) is on record as 11.3%; in series [3] (Table 5, 20.0 mg/kg, ten rats), 28.2%; in series [3] (Table 5, 60.0 mg/kg, ten rats), 50.1%. Moreover, the “Rate of inhibition of the secretion of gastric juice” value in series [3] (Table 5, 6.7 mg/kg, ten rats) turned out to be 7.7%; in series [3] (Table 5, 20.0 mg/kg, ten rats), 23.1%; in series [3] (Table 5, 60.0 mg/kg, ten rats) it was 34.6%. The “Inhibition rate (ulcer)” value in series [4] (100 mg/kg) is listed as 50%; in series [4] (200 mg/kg), 85%.

As usually defined, the LD50 is the dose expected to kill half of the subjects tested. Lower therefore signals a more toxic substance.
